Test results taken from article PMC10216263, “Favorable Preclinical Pharmacological Profile of a Novel Antimalarial Pyrrolizidinylmethyl Derivative of 4-amino-7-chloroquinoline with Potent In Vitro and In Vivo Activities” (Biomolecules, 2023).
Read-outs that look alike come from different tables or passages of the source.

Legend:
P. falciparum K1 (CQ-R) = test: In vitro combination study (isobologram, ∑FIC); assay type: cell-based
[1] = tested on: P. falciparum field isolates; test: Chemosensitivity assay on field isolates; assay type: cell-based
Protocol: (§1) The 10 P. vivax and 10 P. falciparum isolates used in this study were obtained from Mae Sod District, Tak Province, Thailand. […] Isolates were collected in 5 mL lithium-heparinized tubes and sent to the laboratory within 5–6 h.

P. vivax field isolates = test: Chemosensitivity assay on field isolates; assay type: cell-based
Protocol: as §1

[2] = Chemical stability in incubation medium; assay type: physicochemical; conditions: 90 min at 37 °C, Leibovitz L-15 medium
Protocol: An automatic liquid handling system (Multiprobe II EX, Packard) was used for sampling. At 0, 10, 20, 30, 60 and 90 min, […] aliquots of the incubates were taken and added with […] of ice-cold ACN and […] of 1 µM warfarin in ACN (internal standard), and samples centrifuged at 2000 rpm for 20 min. The analysis of supernatant was conducted using LC-MS/MS. MG3 was incubated in the medium under the same conditions to evaluate the chemical stability; 7-ethoxycoumarin (7-ETC) 1 µM and 7-hydroxycoumarin (7-HC) 30 µM were utilized as positive controls for Phase I and Phase II activities. […] Half-life and CLint were determined from the concentration (counts) remaining at the different sampling points using the LC-MS/MS method. The slope was calculated using linear regression analysis of the curve (natural logarithmic area of the compound remaining against the time) and converted into the half-life (t1/2) and CLint expressed as µL/min/million cells and mL/min/kg, respectively.

CYP1A2 = CYP1A2 (Homo sapiens, UniProt P05177); test: in vitro
Sequence of CYP1A2 (P05177 whole entry): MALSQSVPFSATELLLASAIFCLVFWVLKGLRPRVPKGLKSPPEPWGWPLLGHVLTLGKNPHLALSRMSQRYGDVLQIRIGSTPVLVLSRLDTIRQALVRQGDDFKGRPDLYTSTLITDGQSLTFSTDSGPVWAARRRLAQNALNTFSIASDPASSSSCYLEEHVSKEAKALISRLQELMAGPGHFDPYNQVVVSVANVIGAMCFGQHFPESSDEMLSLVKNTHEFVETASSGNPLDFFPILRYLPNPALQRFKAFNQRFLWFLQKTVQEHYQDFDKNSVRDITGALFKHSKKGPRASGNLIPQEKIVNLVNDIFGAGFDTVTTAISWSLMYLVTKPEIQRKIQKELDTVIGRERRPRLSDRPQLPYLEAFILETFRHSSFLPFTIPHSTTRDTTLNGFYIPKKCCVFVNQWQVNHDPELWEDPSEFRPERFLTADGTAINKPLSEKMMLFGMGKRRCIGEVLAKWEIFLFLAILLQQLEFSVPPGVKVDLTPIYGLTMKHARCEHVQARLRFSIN

hERG K+ channel = hERG K+ channel (Homo sapiens, UniProt Q12809); test: [3H]-astemizole binding assay in HEK293 cell membranes
Sequence of hERG K+ channel (Q12809 whole entry): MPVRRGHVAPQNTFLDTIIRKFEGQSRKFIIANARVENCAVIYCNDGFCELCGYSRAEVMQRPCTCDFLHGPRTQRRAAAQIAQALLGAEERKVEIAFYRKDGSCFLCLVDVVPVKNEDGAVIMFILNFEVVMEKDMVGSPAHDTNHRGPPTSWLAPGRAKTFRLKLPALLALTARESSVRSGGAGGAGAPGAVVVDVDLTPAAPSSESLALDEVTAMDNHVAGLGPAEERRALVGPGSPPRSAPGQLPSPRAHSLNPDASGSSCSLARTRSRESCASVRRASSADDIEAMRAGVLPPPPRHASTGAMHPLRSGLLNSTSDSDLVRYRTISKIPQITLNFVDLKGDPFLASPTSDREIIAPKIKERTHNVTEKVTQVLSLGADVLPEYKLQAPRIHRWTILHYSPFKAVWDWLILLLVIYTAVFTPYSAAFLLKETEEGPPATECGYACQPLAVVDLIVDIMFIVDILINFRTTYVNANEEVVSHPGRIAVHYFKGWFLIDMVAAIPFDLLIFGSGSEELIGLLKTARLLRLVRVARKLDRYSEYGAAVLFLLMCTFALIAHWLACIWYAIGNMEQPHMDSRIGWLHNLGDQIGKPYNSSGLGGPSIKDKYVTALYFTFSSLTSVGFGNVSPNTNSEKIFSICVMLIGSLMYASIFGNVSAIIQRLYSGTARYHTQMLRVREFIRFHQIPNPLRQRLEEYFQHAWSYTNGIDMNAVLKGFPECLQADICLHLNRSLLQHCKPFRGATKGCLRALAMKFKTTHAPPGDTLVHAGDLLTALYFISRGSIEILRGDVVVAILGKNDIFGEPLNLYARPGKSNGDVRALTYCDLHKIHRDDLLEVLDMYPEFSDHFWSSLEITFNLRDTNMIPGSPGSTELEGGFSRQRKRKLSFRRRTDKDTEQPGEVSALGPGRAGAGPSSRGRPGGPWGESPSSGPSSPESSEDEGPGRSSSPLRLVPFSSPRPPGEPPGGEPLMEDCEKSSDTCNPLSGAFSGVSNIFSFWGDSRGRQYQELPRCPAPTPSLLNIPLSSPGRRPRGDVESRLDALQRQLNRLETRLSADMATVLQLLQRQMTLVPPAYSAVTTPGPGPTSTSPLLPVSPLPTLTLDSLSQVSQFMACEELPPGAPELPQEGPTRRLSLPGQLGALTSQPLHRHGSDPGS
Protocol: Methods for hERG interaction
Membranes were prepared from HEK293 cells stably transfected with the human ERG (ether-a-go-go related
gene; U04270) from Cytomix.
was used as radioligand. Non-specific binding was evaluated in the presence of an excess of 10 µM cold
The concentration-response curve was performed in a range from 0.03 to 30 µM (seven

7-day oral DRF in dog = assay type: in vivo, Beagle dog; conditions: dogs, 15 and 30 mg/kg/day oral, 7 days
Protocol: (§2) Seven days oral DRF in rats and dog, and five days oral DRF in Non-Human Primates (NHP) were performed using Sprague Dawley rats (n = 3/time point) of both sexes, one male and one female dog Beagle (Marshall/Green Hill) and one male and one female monkeys/Cynomolgus (Noveprim Ltd., Mahebourg Mauritius,). MG3 was administered as oral suspension in 0.5% methocel in water (400 cP viscosity) at the following doses: 30, 60 and 120 mg/kg/day for 7 days (rat), 15 and 30 mg/kg/days for 7 days (dog) and 25, 50 and 75 mg/kg/day (NHP). No Observed Effects Levels (NOEL) were determined. Mortality, behavior, and general conditions were observed daily. Body weight was recorded pre-test, and on Days 1, 4 and 7. Food consumption was recorded from Days 1 to 4 and 4 to 7. Hematological and clinical chemistry examinations were performed on Day 8. All animals were sacrificed under anesthesia at the end of the treatment period on Day 8 of study. Post-mortem examinations included necropsy, collection, and histological examination performed of selected organs/tissues.

[3] = tested on: Pf-3D7 gametocytes >95% Stage V; test: Gametocyte luciferase assay (3D7elo1-pfs16-CBG99); assay type: cell-based, P. falciparum; conditions: Plasmodium falciparum, 3D7, read-out: Pf-3D7 gametocytes IC50 (nM), >95% Stage V
Protocol: (§3) In vitro activity of MG3 against P falciparum sexual gametocyte stages […]
(§4) luminescent transgenic 3D7 strain (3D7elo1-pfs16-CBG99) at two different stages (I-III and V) using the […]
(§5) Briefly, 100 µL of culture medium were removed from each well to increase hematocrit; 70 µL of resuspended culture were transferred to a black 96-well plate; 70 µL of D-luciferin (1 mM in citrate buffer 0.1 M, pH 5.5) were added. Luminescence measurements were performed after 10 min with 500 ms integration time using a Synergy4-BioTek reader.
(§6) (1 picture or pasted object on this page, not shown here)

[4] = tested on: Pf-3D7 gametocytes >95% Stage I-III; test: Gametocyte luciferase assay (3D7elo1-pfs16-CBG99); assay type: cell-based, P. falciparum
Protocol: as §3, §4, §5, §6

[5] = Oral DRF and systemic exposure in NHP; assay type: in vivo, Cynomolgus monkeys; conditions: for AUC(0-t) / Cmax / Tmax: po, 50 mg/kg/day; for half-life: plasma, Day 5, 50 mg/kg/day oral, read-out: t1/2, z (converted)
Protocol: as §2

[6] = tested on: Escherichia coli WP2 uvrA; test: Bacterial Reverse Mutation Assay; conditions: with metabolic activation
Protocol: using the preincubation method (30 min, 37°C) with and without phenobarbital-5,6-benzoflavone induced
MG3 was dissolved in distilled water (H2O) at
the maximum concentration of 40 mg/mL and tested in a preliminary range-finding test in all strains of
metabolic activation to determine the toxicity of the compound.

P. chabaudi AS = test: Four-day suppressive Peters' test, oral; assay type: in vivo, P. chabaudi in CD1 mice; conditions: once a day for 4 days, parasitemia day 4, CD1 mice
Protocol: Groups of five CD1 mice were inoculated i.v., with 4 × 10^6 infected erythrocytes/mice. Compounds, dissolved in standard suspending formula (SSV) (0.5% sodium carboxymethylcellulose, 0.5% benzyl alcohol, 0.4% Tween 80, and 0.9% NaCl), were administered once a day for 4 days via oral gavage, starting two hours post-infection. […] Parasitemia was evaluated using microscopic examination of Giemsa-stained blood films taken on day four, processed using MICROSOFT® EXCEL spreadsheets (Microsoft Corp., Redmond, WA, USA), and expressed as percentages of inhibition from the arithmetic mean parasitemia of each group in relation to the untreated group. ED50 and ED90 values were calculated using GraphPad Prism 6 (GraphPad Software Inc., La Jolla, CA, USA).

[7] = both sexes, cynomolgus monkey, in vivo
[8] = female, cynomolgus monkey, in vivo
[9] = male, cynomolgus monkey, in vivo

Clc1ccc2c(NCC34CCCN3CCC4)ccnc2c1 [MG3, 7-Chloro-N-((hexahydro-1H-pyrrolizin-7a-yl)methyl)quinolin-4-amine]
Mean ∑FIC50 (95% CI) (P. falciparum K1 (CQ-R); in combination with ASN, K1, IC50 level): 1.25 (0.94 – 1.56) | Mean ∑FIC50 (95% CI) (P. falciparum K1 (CQ-R); in combination with DHA, K1, IC50 level): 1.25 (1.21 – 1.29) | Mean ∑FIC50 (95% CI) (P. falciparum K1 (CQ-R); in combination with RKA-182, K1, IC50 level): 1.24 (0.85 – 1.63) | interaction (isobologram) (P. falciparum K1 (CQ-R); in combination with azitromycin, K1 (CQ-R)): additive | IC50 ([1]; Plasmodium falciparum, read-out: P. falciparum IC50 nM, Field Isolates, mean of 10 field isolates, Thai Burmese Border): < 15 nM | IC50 ([1]; read-out: P. falciparum IC50 nM, Field Isolates, mean of 10 field isolates, Thai Burmese Border): 20.9 nM | IC50 lower than that of CQ (P. vivax field isolates; P. vivax isolates): 40% | IC50 (P. vivax field isolates; Plasmodium vivax, read-out: P. vivax IC50 nM, Field Isolates): 50.3 nM | chemical stability in incubation medium alone [2]: did not show any degradation | inhibition at 3 µM (CYP1A2): 12.1 ± 1.2% | Ki (hERG K+ channel): 553 ± 45 nM | toxicity finding (7-day oral DRF in dog): associated with mortality one week after last treatment due to acute renal failure | IC50 [3]: 10700 ± 2790 nM | IC50 ([4]; Plasmodium falciparum, 3D7, read-out: Pf-3D7 gametocytes IC50 (nM), >95% Stage I-III, luciferase readout, 3D7elo1-pfs16-CBG99): 102 ± 22.1 nM | IC50 ([4]; read-out: Pf-3D7 gametocytes IC50 (nM), >95% Stage I-III, luciferase readout, 3D7elo1-pfs16-CBG99): ~100 nM | tolerability ([5]; NHP, 50 mg/kg/day for five consecutive days): tolerated with limited clinical signs | toxicity finding ([5]; NHP, 75 mg/kg/day oral (Phase I, incremental doses)): associated with mortality and severe CNS-related clinical signs | AUC(0-t) [5, 7]: 896 ± 132 ng·h/mL | Cmax [5, 7]: 70.1 ± 3.68 ng/mL | Tmax [5, 7]: 1.25 ± 1.06 h | MTD at 5 days ([5]; both sexes, cynomolgus monkey, in vivo, NHP, 5-day oral, read-out: maximum tolerated dose (MTD)): 50 mg/kg/day | half-life ([5]; both sexes, cynomolgus monkey, Mean ± SD of male and female NHP): 14.9 ± 10.3 h | half-life ([5]; cynomolgus monkey, Female NHP): 22.2 h | half-life ([5]; cynomolgus monkey, Male NHP): 7.66 h | AUC(0-t) [5, 8]: 989 ng·h/mL | Cmax [5, 8]: 72.7 ng/mL | Tmax [5, 8]: 0.5 h | AUC(0-t) [5, 9]: 802 ng·h/mL | Cmax [5, 9]: 67.5 ng/mL | Tmax [5, 9]: 2 h | fold increase value (ratio treated/solvent revertant numbers) ([6]; I° Exp., 62.5 µg/plate): 1.4 | fold increase value (ratio treated/solvent revertant numbers) ([6]; I° Exp., 125 µg/plate): 1.4 | fold increase value (ratio treated/solvent revertant numbers) ([6]; I° Exp., 250 µg/plate): 1.5 | fold increase value (ratio treated/solvent revertant numbers) ([6]; I° Exp., 500 µg/plate): 0.8 | fold increase value (ratio treated/solvent revertant numbers) ([6]; I° Exp., 1000 µg/plate): 0.7 | fold increase value (ratio treated/solvent revertant numbers) ([6]; Range finding, 1.95 µg/plate): 1.0 | fold increase value (ratio treated/solvent revertant numbers) ([6]; Range finding, 3.9 µg/plate): 0.9 | fold increase value (ratio treated/solvent revertant numbers) ([6]; Range finding, 7.81 µg/plate): 0.9 | fold increase value (ratio treated/solvent revertant numbers) ([6]; Range finding, 15.63 µg/plate): 0.7 | fold increase value (ratio treated/solvent revertant numbers) ([6]; Range finding, 31.25 µg/plate): 0.8 | fold increase value (ratio treated/solvent revertant numbers) ([6]; Range finding, 62.5 µg/plate): 0.7 | fold increase value (ratio treated/solvent revertant numbers) ([6]; Range finding, 125 µg/plate): 0.9 | fold increase value (ratio treated/solvent revertant numbers) ([6]; Range finding, 250 µg/plate): 0.7 | fold increase value (ratio treated/solvent revertant numbers) ([6]; Range finding, 500 µg/plate): 0.7 | fold increase value (ratio treated/solvent revertant numbers) ([6]; Range finding, 1000 µg/plate): 0.8 | ED50 (P. chabaudi AS; Plasmodium chabaudi, 96 h, read-out: ED50 (95% CI) Mean): 4.69 mg/kg | ED90 (95% CI) Mean (P. chabaudi AS): 9.80 (8.86–10.6) mg/kg
